Data set [1] concerns B16 melanocytes stimulated with NDP-MSH. Description: Anti-melanogenesis activity: melanin synthesis in B16 melanocytes stimulated with NDP-MSH. The format is cell-based. Particulars: NDP-MSH stimulated B16, 72 h, Table 2. On the procedure: The depigmenting effect was evaluated on a line of type B16 melanocytes stimulated with NDP-MSH, (natural hormone stimulating melanogenesis; Melanocyte Stimulating Hormone, [Nle, DPhe]-α-MSH). Melanin synthesis was evaluated.
The anti-melanogenesis activity of the compounds in solution in DMSO was evaluated by measuring melanin synthesis in a model of B16 melanocytes stimulated with a stable derivative of α-MSH (natural melanogenesis stimulating hormone): NDP-MSH.
(§1) The melanocytes were seeded in a 96-well plate and were cultured for 24 h (37° C., 5% CO2, DMEM 1 g/L glucose without phenol red supplemented with glucose at 3 g/L, L-glutamine at 2 mM, penicillin at 50 U/mL, streptomycin at 50 μg/mL, foetal calf serum (FCS) at 10%). After incubation, the culture medium was then replaced with culture medium supplemented or not supplemented (unstimulated control) with a stable derivative of α-MSH and containing or not containing (controls) the test compounds or the reference (kojic acid at 25, 100, 400, 800 μg/mL). Each experiment was carried out with n=3, apart from the controls carried out with n=6, then the cells were incubated for 72 h. Wells without cells received in parallel the same quantities of medium supplemented or not supplemented with NDP-MSH and containing or not containing the test compounds or the reference in order to quantify the background noise associated with the presence of the compounds.
After incubation for 72 hours, the total melanin (intra- and extracellular) was quantified by measuring the absorption at 405 nm of each sample (direct reading of the culture plates) against a standard range of melanin (melanin concentrations tested from 0.78 to 100 μg/mL). The background noise, measured in the wells without cells, was subtracted from the measured values so as only to take into account the effect connected with melanin production, without taking into account the possible interference connected with the presence of the compounds. The results were expressed as percentage of melanin relative to the control as well as percentage inhibition.
The operating conditions are the same as in Example 12.

The subject of data set [2] is B16 melanocytes. Description: Cell viability, MTT reduction test. It is filed as cell-based. Particulars: B16, 72 h, Table 2. The protocol:
as §1, with “compounds. At the end of the treatment, the cells were incubated in the presence of MTT (tetrazolium salt), the transformation of which to blue crystals of formazan is proportional to the activity of succinate dehydrogenase (mitochondrial enzyme). After dissociation of the cells, the formazan was dissolved in DMSO medium and the optical density (OD), representative of the number of living cells and of their metabolic reactivity, was measured with a microplate reader at 540 nm (VERSAmax, Molecular Devices). The operating conditions are the same as in Example 12.” for “compounds.”

Data set [3] has as its system skin explants (abdominoplasty). Description: Histological assessment of the general morphology of skin explants maintained in survival. Particulars: 2 μg/mL in DMSO, after 9 days of survival. The format is cell-based, human. The protocol:
1. Preparation of the explants • During abdominoplasty of a person, 45 skin explants were prepared. The explants were put in BEM medium (BIO-EC's Explants Medium) for survival at 37° C. in humid atmosphere, enriched with 5% CO2.
2. Application of the products • The solutions are prepared in DMSO from pure products, in order to obtain final concentrations of […] by incorporating an identical volume of 10 μl in each well and for each treatment. The treatment was carried out in the survival medium on days 0, 1, 2, 5 and 7.
3. Taking samples • On D0, the 3 explants of batch TO were taken and each explant was cut in two. One part was fixed in buffered formol for observation of the general morphology. The other was frozen and stored at −80° C. • On D5 and D9, 3 explants from each batch were taken and treated in the same way.
4. […]
5. Microscopic observations • The microscopic observations were carried out by light microscopy and fluorescence microscopy, using a Orthoplan-type Leica microscope, with ×25 objective. The images were recorded with a Sony DXC 390P tri CCD camera and stored using the Leica IM1000 data archiving software. • The general morphology was observed on sections in paraffin after staining with Masson trichrome, Goldner variant according to procedure MO-H-157. […]

[4] abbreviates: Melanocyte, 30 μM, read-out: Standardized data Inhibition (%) (melanin).
[5] abbreviates: Melanocyte, 100 μM, read-out: Standardized data Inhibition (%) (melanin).

Usually inhibition stands for the drop in the measured response relative to a control, in per cent. For the compound `COc1ccccc1C1(COc2ccc(F)cc2)CC1` [Compound 18], in data set [1] (setting [4]), the inhibition at 30 µM is -21%. Also, the inhibition at 100 µM in data set [1] (setting [5]) stood at 105%. The “Viability (MTT) % stimulated control” value was found to be 80% in data set [2] (30 μM) and 75% in data set [2] (100 μM).
With `CC(C)c1ccc(OCCc2ccccc2O)cc1` [Compound 39], the inhibition at 3 µM in data set [1] (Melanocyte, 3 μM, read-out: Standardized data Inhibition (%) (melanin)) amounted to 70%. The inhibition at 10 µM in data set [1] (Melanocyte, 10 μM, read-out: Standardized data Inhibition (%) (melanin)) came out at 111%. Also, the inhibition at 30 µM in data set [1] (setting [4]) came to 119%. In addition, the “Viability (MTT) % stimulated control” value in data set [2] (3 μM) is 119%; in data set [2] (10 μM), 101%; in data set [2] (30 μM), 86%.
In the case of `COc1ccc(OCCc2ccccc2O)cc1` [Compound 4], the “Standardized data Inhibition (%) (melanin)” value was 95% in data set [1] (30 μM) and 111% in data set [1] (100 μM). Besides, the “Viability (MTT) % stimulated control” value was 97% in data set [2] (30 μM) and 54% in data set [2] (100 μM).
As for `COc1ccc(OCCc2ccccc2OC)cc1` [Compound 14], the inhibition at 30 µM in data set [1] (setting [4]) was -22%. The inhibition at 100 µM in data set [1] (setting [5]) was 100%. Also, the “Viability (MTT) % stimulated control” value is 89% in data set [2] (30 μM) and 80% in data set [2] (100 μM).
For `Fc1ccc(OCCc2ccccc2C(F)(F)F)cc1` [Compound 10], in that order: -11%, 27%, 87% and 91%.
For the compound `CCOc1ccc(OCC(O)c2ccccc2O)cc1` (centres unmarked) [Compound 57], the inhibition at 30 µM in data set [1] (setting [4]) stood at 47%. Further, the “Viability (MTT) % stimulated control” value in data set [2] (30 μM) is 97%.
Regarding `COc1ccccc1CCOc1ccc(F)cc1` [Compound 16], in data set [1] (setting [4]), the inhibition at 30 µM is -33%. In addition, the inhibition at 100 µM in data set [1] (setting [5]) was 52%. Moreover, the results for the “Viability (MTT) % stimulated control” value in data set [2] (30 μM) and in data set [2] (100 μM) were 87% and 83%, respectively.
Regarding `C[C@]12CC[C@H](O)CC1=CC[C@@H]1[C@@H]2CC[C@]2(C)C(=O)CC[C@@H]12` [(+)-dehydroisoandrosterone, reference compound], the “General morphology: epidermal structure and papillary dermis” value in data set [3] is recorded as “does not alter the epidermal structure or the papillary dermis”.

(Values after patent US20150004110A1, “NOVEL ANTI-AGING AND DEPIGMENTING COSMETIC COMPOSITIONS” (DIVERCHIM, priority 2011, published 2015).)
